The values that follow come from patent US11174251B2, “Compositions and methods for inhibition of the JAK pathway” (Rigel Pharmaceuticals, Inc., priority 2010, dated 2021).

Structures are written as SMILES. Counter-ions that a name gives are not always drawn.

For the assay, the target named is T1, JAK3 (Homo sapiens, UniProt P52333).
T1 construct: The Ramos B-cell line was acquired from ATCC (ATCC Catalog No. CRL-1596); host or cells: Ramos B-cell line (human)
T1 sequence (P52333 1-1124): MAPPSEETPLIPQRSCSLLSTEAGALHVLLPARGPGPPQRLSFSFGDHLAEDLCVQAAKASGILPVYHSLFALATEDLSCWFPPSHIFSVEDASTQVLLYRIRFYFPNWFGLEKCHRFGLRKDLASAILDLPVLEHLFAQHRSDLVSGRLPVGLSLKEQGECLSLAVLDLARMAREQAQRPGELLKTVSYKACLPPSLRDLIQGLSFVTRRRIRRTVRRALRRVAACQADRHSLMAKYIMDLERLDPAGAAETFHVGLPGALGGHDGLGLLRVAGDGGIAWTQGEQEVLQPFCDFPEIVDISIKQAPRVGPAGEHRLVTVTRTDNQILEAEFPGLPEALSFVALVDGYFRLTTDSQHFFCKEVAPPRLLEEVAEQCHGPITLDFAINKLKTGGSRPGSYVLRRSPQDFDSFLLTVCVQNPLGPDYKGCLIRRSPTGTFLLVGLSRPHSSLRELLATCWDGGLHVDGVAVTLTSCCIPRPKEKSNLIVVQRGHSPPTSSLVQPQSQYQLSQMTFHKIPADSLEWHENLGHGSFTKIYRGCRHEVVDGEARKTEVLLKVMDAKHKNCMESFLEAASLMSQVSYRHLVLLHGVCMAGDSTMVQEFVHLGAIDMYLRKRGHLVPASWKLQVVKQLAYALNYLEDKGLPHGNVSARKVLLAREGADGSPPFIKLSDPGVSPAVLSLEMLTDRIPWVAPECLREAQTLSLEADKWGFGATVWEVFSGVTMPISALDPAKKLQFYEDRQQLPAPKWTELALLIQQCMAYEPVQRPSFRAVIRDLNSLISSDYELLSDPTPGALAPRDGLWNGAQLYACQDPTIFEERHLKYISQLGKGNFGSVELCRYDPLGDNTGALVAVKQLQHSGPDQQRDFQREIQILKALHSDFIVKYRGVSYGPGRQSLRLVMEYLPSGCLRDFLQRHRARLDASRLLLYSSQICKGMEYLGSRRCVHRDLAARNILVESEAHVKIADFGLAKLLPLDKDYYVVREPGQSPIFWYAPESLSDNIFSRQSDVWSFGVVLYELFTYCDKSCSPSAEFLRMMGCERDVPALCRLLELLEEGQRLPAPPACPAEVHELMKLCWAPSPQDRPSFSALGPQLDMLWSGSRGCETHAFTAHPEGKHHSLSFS
In words: Assay for CD23 expression on Ramos B-cells stimulated by IL-4 (Table IV: ability to inhibit JAK3 activity). As to conditions: tested under conditions described in Example 3 (so in the source). In kind it is cell-based. The essentials: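 Human Ramos B cells in RPMI with 5% serum, pre-incubated 1 h at 37 °C with compound or DMSO, then stimulated with IL-4 (final 50 units/mL) for 20–24 h. Surface CD23 upregulation measured by FACS staining as readout of JAK1/JAK3–Stat-6 signalling.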
On to `Cc1cnc(Nc2cc(C)c(C)c(C)c2)nc1Nc1ccc2oc(=O)n(COP(=O)(O)O)c2c1` [Compound I-132, 5-methyl-N4-[3-(phosphonooxy)methyl-2-oxo-2,3-dihydro-1,3-benzoxazol-5-yl]-N2-(3,4,5-trimethyl)phenyl-2,4-pyrimidinediamine Tris salt], for which the IC50 is below 500 nM.

In turn, `Cc1cnc(Nc2cc(C)c(C)c(C)c2)nc1Nc1ccc2oc(=O)n(COP(=O)(O)OCCN(C)C)c2c1` [Compound I-133, N4-{3-[2-(N,N-dimethylamino)ethoxy]phosphinyloxymethyl-2-oxo-2,3-dihydro-1,3-benzoxazol-5-yl}-5-methyl-N2-(3,4,5-trimethyl)phenyl-2,4-pyrimidinediamine] had an IC50 of 5000 to 10000 nM.

The molecule `Cc1cnc(Nc2cc(C)c(C)c(C)c2)nc1Nc1ccc2oc(=O)n(COP(=O)(OCCN(C)C)OCCN(C)C)c2c1` [Compound I-134, N4-{3-bis[2-(N,N-dimethylamino)ethoxy]phosphinyloxymethyl-2-oxo-2,3-dihydro-1,3-benzoxazol-5-yl}-5-methyl-N2-(3,4,5-trimethyl)phenyl-2,4-pyrimidinediamine] yielded an IC50 above 10000 nM.

Take `Cc1cnc(Nc2cc(C)c(C)c(C)c2)nc1Nc1ccc2oc(=O)n(COP(=O)(O)O)c2c1` [Compound I-136, 5-methyl-N4-[3-(phosphonooxy)methyl-2-oxo-2,3-dihydro-1,3-benzoxazol-5-yl]-N2-(3,4,5-trimethyl)phenyl-2,4-pyrimidinediamine dipotassium salt]: the IC50 was 500 to 5000 nM.

In turn, `COC(=O)c1c(C)cc(Nc2ncc(C)c(Nc3ccc4oc(=O)[nH]c4c3)n2)cc1C` [Compound I-138, N2-(3,5-dimethyl-4-methoxycarbonyl)phenyl-5-methyl-N4-(2-oxo-2,3-dihydro-1,3-benzoxazol-5-yl)-2,4-pyrimidinediamine] yielded an IC50 below 500 nM.

Molecule `CCN(c1cc(C)c(C)c(C)c1)c1ncc(C)c(Nc2ccc3oc(=O)[nH]c3c2)n1` [Compound I-139, N2-ethyl-N2-(3,4,5-trimethyl)phenyl-5-methyl-N4-(2-oxo-2,3-dihydro-1,3-benzoxazol-5-yl)-2,4-pyrimidinediamine] gave an IC50 above 10000 nM.

Turning to `Cc1cnc(Nc2cc(C)c(C(=O)O)c(C)c2)nc1Nc1ccc2oc(=O)[nH]c2c1` [Compound I-140, N2-(4-carboxy-3,5-dimethyl)phenyl-5-methyl-N4-(2-oxo-2,3-dihydro-1,3-benzoxazol-5-yl)-2,4-pyrimidinediamine], the IC50 lay in the range of 500 to 5000 nM.

For `Cc1cnc(Nc2cc(C)c(C(=O)OCc3ccccc3)c(C)c2)nc1Nc1ccc2oc(=O)[nH]c2c1` [Compound I-141, N2-(4-benzyloxycarbonyl-3,5-dimethyl)phenyl-5-methyl-N4-(2-oxo-2,3-dihydro-1,3-benzoxazol-5-yl)-2,4-pyrimidinediamine], the IC50 was below 500 nM.

`Cc1cnc(Nc2cc(C)c(CO)c(C)c2)nc1Nc1ccc2oc(=O)[nH]c2c1` [Compound I-142, N2-(3,5-dimethyl-4-hydroxymethyl)phenyl-5-methyl-N4-(2-oxo-2,3-dihydro-1,3-benzoxazol-5-yl)-2,4-pyrimidinediamine] displayed an IC50 below 500 nM.

Consider `COCc1c(C)cc(Nc2ncc(C)c(Nc3ccc4oc(=O)[nH]c4c3)n2)cc1C` [Compound I-143, N2-(3,5-dimethyl-4-methoxymethyl)phenyl-5-methyl-N4-(2-oxo-2,3-dihydro-1,3-benzoxazol-5-yl)-2,4-pyrimidinediamine], for which the IC50 was below 500 nM.

`COC(=O)c1cc(Nc2ncc(C)c(Nc3ccc4oc(=O)[nH]c4c3)n2)cc(C)c1C` [Compound I-144, N2-(3,4-dimethyl-5-methoxycarbonyl)phenyl-5-methyl-N4-(2-oxo-2,3-dihydro-1,3-benzoxazol-5-yl)-2,4-pyrimidinediamine] displayed an IC50 below 500 nM.

For the molecule `Cc1cnc(Nc2cc(C)c(C)c(C(=O)O)c2)nc1Nc1ccc2oc(=O)[nH]c2c1` [Compound I-145, N2-(3-carboxy-4,5-dimethyl)phenyl-5-methyl-N4-(2-oxo-2,3-dihydro-1,3-benzoxazol-5-yl)-2,4-pyrimidinediamine], the IC50 fell in the range of 500 to 5000 nM.

`Cc1cnc(Nc2cc(C)c(F)c(C)c2)nc1Nc1ccc2oc(=O)[nH]c2c1` [Compound I-146, N2-(3,5-dimethyl-4-fluoro)phenyl-5-methyl-N4-(2-oxo-2,3-dihydro-1,3-benzoxazol-5-yl)-2,4-pyrimidinediamine benzenesulfonic acid salt]: the IC50 is below 500 nM.

Consider `Cc1cnc(Nc2cc(C)c(C)c(CO)c2)nc1Nc1ccc2oc(=O)[nH]c2c1` [Compound I-147, N2-(3,4-dimethyl-5-hydroxymethyl)phenyl-5-methyl-N4-(2-oxo-2,3-dihydro-1,3-benzoxazol-5-yl)-2,4-pyrimidinediamine], for which the half-inhibitory concentration (IC50) was below 500 nM.

Turning to `CCCCc1ccc(Nc2ncc(C)c(Nc3ccc4oc(=O)[nH]c4c3)n2)cc1C` [Compound I-148, N2-(4-n-butyl-3-methyl)phenyl-5-methyl-N4-(2-oxo-2,3-dihydro-1,3-benzoxazol-5-yl)-2,4-pyrimidinediamine], the IC50 is 5000 to 10000 nM.

For the molecule `Cc1cnc(Nc2cc(C)c(Br)c(C)c2)nc1Nc1ccc2oc(=O)[nH]c2c1` [Compound I-149, N2-(4-bromo-3,5-dimethyl)phenyl-5-methyl-N4-(2-oxo-2,3-dihydro-1,3-benzoxazol-5-yl)-2,4-pyrimidinediamine], the IC50 was below 500 nM.

Take `Cc1cnc(Nc2cc(C)c(C(=O)OC(C)(C)C)c(C)c2)nc1Nc1ccc2oc(=O)[nH]c2c1` [Compound I-150, N2-(4-tert-butoxycarbonyl-3,5-dimethyl)phenyl-5-methyl-N4-(2-oxo-2,3-dihydro-1,3-benzoxazol-5-yl)-2,4-pyrimidinediamine]: the IC50 is below 500 nM.

Turning to `Cc1ccc(Nc2ncc(C)c(Nc3ccc4oc(=O)[nH]c4c3)n2)cc1C(=O)O` [Compound I-152, N2-(3-carboxy-4-methyl)phenyl-5-methyl-N4-(2-oxo-2,3-dihydro-1,3-benzoxazol-5-yl)-2,4-pyrimidinediamine], the IC50 lay within 5000 to 10000 nM.

In the case of `COC(=O)c1cc(Nc2ncc(C)c(Nc3ccc4oc(=O)[nH]c4c3)n2)cc(C)c1F` [Compound I-153, N2-(4-fluoro-3-methoxycarbonyl-5-methyl)phenyl-5-methyl-N4-(2-oxo-2,3-dihydro-1,3-benzoxazol-5-yl)-2,4-pyrimidinediamine], the IC50 was below 500 nM.

Consider `Cc1cnc(Nc2cc(C)c(F)c(CO)c2)nc1Nc1ccc2oc(=O)[nH]c2c1` [Compound I-154, N2-(4-fluoro-3-hydroxymethyl-5-methyl)phenyl-5-methyl-N4-(2-oxo-2,3-dihydro-1,3-benzoxazol-5-yl)-2,4-pyrimidinediamine], for which the IC50 was below 500 nM.

The molecule `Cc1cnc(Nc2cc(C)c(F)c(C(=O)O)c2)nc1Nc1ccc2oc(=O)[nH]c2c1` [Compound I-155, N2-(3-carboxy-4-fluoro-5-methyl)phenyl-5-methyl-N4-(2-oxo-2,3-dihydro-1,3-benzoxazol-5-yl)-2,4-pyrimidinediamine] had an IC50 of 500 to 5000 nM.

As for `CC(=O)c1ccc(Nc2ncc(F)c(Nc3ccc4oc(=O)[nH]c4c3)n2)cc1` [Compound I-157, 5-(2-(4-acetylphenylamino)-5-fluoropyrimidin-4-ylamino)benzo[d]oxazol-2(3H)-one formate salt], the IC50 is below 500 nM.
